The text below walks through data of patent US20150338423A1, “METHODS FOR DETERMINING RELATIVE BINDING ENERGY OF MONOMERS AND METHODS OF USING THE SAME” (SABIC Global Technologies B.V., priority 2014, published 2015).

The target of this assay is T1, (Homo sapiens, UniProt P03372).
T1 sequence (P03372 1-595): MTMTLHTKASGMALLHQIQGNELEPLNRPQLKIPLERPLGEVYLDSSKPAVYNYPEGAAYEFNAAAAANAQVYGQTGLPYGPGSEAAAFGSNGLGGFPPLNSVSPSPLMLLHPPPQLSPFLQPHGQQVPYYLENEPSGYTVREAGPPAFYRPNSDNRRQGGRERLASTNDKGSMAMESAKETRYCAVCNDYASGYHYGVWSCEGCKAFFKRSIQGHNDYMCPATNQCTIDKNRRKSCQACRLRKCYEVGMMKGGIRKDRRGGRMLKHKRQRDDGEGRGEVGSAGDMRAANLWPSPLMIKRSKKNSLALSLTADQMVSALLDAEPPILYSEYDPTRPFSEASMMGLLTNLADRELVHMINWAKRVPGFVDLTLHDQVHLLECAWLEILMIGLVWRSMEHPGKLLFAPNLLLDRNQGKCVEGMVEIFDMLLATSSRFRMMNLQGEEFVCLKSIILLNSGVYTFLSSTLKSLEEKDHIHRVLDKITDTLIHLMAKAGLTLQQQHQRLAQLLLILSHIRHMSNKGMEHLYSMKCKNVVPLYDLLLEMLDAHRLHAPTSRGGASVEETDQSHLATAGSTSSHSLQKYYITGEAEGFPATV
As to the kind of experiment: in vitro competitive binding assay (radio-ligand displacement), estradiol binding activity.

[1] abbreviates: Table 1, unsubstituted reference monomers, displacement of radio-ligand from ERR-α, read-out: IC50.

Read-outs that look alike come from different tables or passages of the source.

By IC50 is commonly meant the point on the concentration scale where inhibition reaches its midpoint.

Description: The (IC50) of a particular substance can be determined using conventional competition binding assays. In this type of assay, a single concentration of radioligand (such as an agonist) is used in every assay tube. The ligand is used at a low concentration, usually at or below its Kd value. The level of specific binding of the radioligand is then determined in the presence of a range of concentrations of other competing non-radioactive compounds (usually antagonists), in order to measure the potency with which they compete for the binding of the radioligand. Competition curves can also be computer-fitted to a logistic function as described under direct fit.
IC50 binding concentrations for the alpha in vitro estradiol receptors were tested. Four separate sets of tests were run using a standard competitive binding assay. Samples were dissolved in either ethanol or DMSO. The various compounds were then tested at up to seven different concentrations for each test compound. Each of those tests was run in triplicate. Tests were conducted by displacement of a radio-ligand. For each set of tests a 17P-estradiol control sample was run to ensure proper binding of the natural hormone under the test conditions. Specifically, the IC50 values described herein were determined from in-vitro experiments of the compound binding to ERR-α.

As for `COc1cc(C(C)(C)c2ccc(O)c(OC)c2)ccc1O` [Example 1A, 4,4′-(propane-2,2-diyl)bis(2-methoxyphenol)], for the setting “Table 2, substituted monomers, displacement of radio-ligand from ERR-α, read-out: IC50”, the IC50 is greater than 250 µM. For the same molecule, for the setting “with the LBD cavity of ERR-α, in words”, the estradiol binding activity entry was “reduced or no detectable estradiol binding activity”.
`Cc1cc(C2(c3ccc(O)c(C)c3)CCCCC2)ccc1O` [Reference ID 2, 4,4′-(cyclohexane-1,1-diyl)bis(2-methylphenol)]: the concentration for half-maximal inhibition (IC50) under setting [1] turned out to be 1.27 µM.
As to `CC(C)(c1ccc(O)cc1)c1ccc(C(C)(C)c2ccc(O)cc2)cc1` [Reference ID 7, 4,4′-(1,4-phenylenebis(propane-2,2-diyl))diphenol], the IC50 turned out to be 3.92 µM.
On to `CCC(CC)(c1ccc(O)cc1)c1ccc(O)cc1` [Reference ID 9, 4,4′-(pentane-3,3-diyl)diphenol], for which, under setting [1], the IC50 was 0.0056 µM.
Take `COC(=O)CCC(C)(c1ccc(O)cc1)c1ccc(O)cc1` [Reference ID 10, Methyl 4,4-bis(4-hydroxyphenyl)pentanoate]: the IC50 under setting [1] stood at 18.7 µM.
